17 compounds from US11420975B2, “Substituted imidazo[1,5-a]pyrazines as Bruton's tyrosine kinase inhibitors” (TRANSTHERA SCIENCES (NANJING), INC., priority 2018, dated 2022) can be followed below.

In one experiment the target is BTK(wt) (Homo sapiens (Human), UniProt Q06187). Kind of experiment: In vitro inhibitory activity against BTK(wt) enzyme (33P-ATP filter binding). In kind it is biochemical. To be noted: class symbols. The method, then:
(§1) The substrate solution was prepared by adding the substrate poly(Glu, Tyr) sodium salt (Sigma Aldrich, St. Louis, Mo.) to the substrate reaction buffer (20 mM Hepes (pH 7.5), 10 mM MgCl2, 1 mM EGTA, 0.02% Brij35, 0.02 mg/mL BSA, 0.1 mM Na3VO4, 2 mM DTT and 1% DMSO) (final substrate concentration in the reaction solution was 0.2 μM). Test compound was formulated into stock solutions at 10 mM concentration with 100% DMSO, and 3-fold serial dilution for 10 doses was performed in a 384-well cyclic olefin copolymer LDV microplate. […] Test compound in 100% DMSO was then added to the kinase reaction mixture by acoustic liquid transfer technology (Echo 550; nanoliter range) (Labcyte Inc, Sunnyvale, Calif.) and incubated for 20 min at room temperature. 33P-ATP (specific activity 10 μCi/μL) was added to the reaction mixture to initiate the reaction, followed by incubation at room temperature for 2 h. A small portion of the reaction mixture was dropped onto P-81 ion exchange filter paper (Whatman). After washing the unbound phosphate from the filter paper with 0.75% phosphate buffer (three times) and drying, the remaining radioactivity on the filter paper was measured. The kinase activity was expressed as the percentage of the remaining kinase activity in the test sample to the kinase activity in the vehicle (dimethyl sulfoxide) blank control. IC50 values were calculated by curve fitting the data obtained using Prism (GraphPad Software).

For a further experiment, the target named is BTK(C481S) (Homo sapiens (Human), UniProt Q06187, C481S). Kind of experiment: In vitro inhibitory activity against BTK(C481S) enzyme (33P-ATP filter binding). In kind it is biochemical. Particulars: class symbols; read-out: IC50 BTK(C48IS). The method, then:
as §1

Some results are limits rather than exact numbers.

BTK(wt), sequence (Q06187 whole entry): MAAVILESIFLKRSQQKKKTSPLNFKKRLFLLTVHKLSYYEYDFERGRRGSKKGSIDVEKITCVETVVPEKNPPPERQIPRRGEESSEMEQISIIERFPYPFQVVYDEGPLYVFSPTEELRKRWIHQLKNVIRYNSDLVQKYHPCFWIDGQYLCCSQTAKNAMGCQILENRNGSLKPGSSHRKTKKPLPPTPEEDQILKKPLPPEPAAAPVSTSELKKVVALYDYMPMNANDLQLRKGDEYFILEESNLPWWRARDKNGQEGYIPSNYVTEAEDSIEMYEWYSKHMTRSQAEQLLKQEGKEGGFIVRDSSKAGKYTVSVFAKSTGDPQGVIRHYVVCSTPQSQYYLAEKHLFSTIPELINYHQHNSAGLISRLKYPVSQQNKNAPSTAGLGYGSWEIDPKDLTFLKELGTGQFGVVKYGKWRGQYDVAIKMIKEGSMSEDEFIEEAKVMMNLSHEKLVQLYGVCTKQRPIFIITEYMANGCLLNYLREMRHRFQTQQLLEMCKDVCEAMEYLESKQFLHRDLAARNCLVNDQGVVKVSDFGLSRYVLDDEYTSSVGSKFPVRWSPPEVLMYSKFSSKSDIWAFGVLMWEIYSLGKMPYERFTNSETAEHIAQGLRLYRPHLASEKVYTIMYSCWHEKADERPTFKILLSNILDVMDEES
BTK(C481S), sequence (Q06187 whole entry C481S): as the sequence (Q06187 whole entry) above, with C481S counted along it

One may read the IC50 as the concentration that inhibits the measured activity by half. Consider `N#CC1(C(=O)NC23CCC(c4nc(-c5ccc(C(=O)Nc6cc(C(F)(F)F)ccn6)cc5)c5c(N)nccn45)(CC2)C3)CCOCC1` [Compound A-10-15, N-(4-(8-amino-1-(4-((4-(trifluoromethyl)pyridin-2-yl)carbamoyl)phenyl)imidazo[1,5-a]pyrazin-3-yl)bicyclo[2.2.1]heptan-1-yl)-4-cyanotetrahydro-2H-pyran-4-carboxamide], for which the results for the 50% inhibitory concentration (IC50) at BTK(wt) and at BTK(C481S) were 1 to 10 nM and 0.1 to 1 nM, respectively.

`CC#CC(=O)NC12CCC(c3nc(-c4ccc(C(=O)Nc5cc(C(F)(F)F)ccn5)cc4F)c4c(N)nccn34)(CC1)C2` [Compound A-7-9, 4-(8-amino-3-(4-(but-2-ynamido)bicyclo[2.2.1]heptan-1-yl)imidazo[1,5-a]pyrazin-1-yl)-3-fluoro-N-(4-(trifluoromethyl)pyridin-2-yl)benzamide]: the results for the IC50 on BTK(wt) and on BTK(C481S) were 1 to 10 nM and 0.1 to 1 nM, respectively.

Consider `COc1ccc(F)cc1C(=O)NCc1ccc(-c2nc(C34CCC(NC(=O)C(C)(C)O)(CC3)C4)n3ccnc(N)c23)cc1` [Compound A-16-1, N-(4-(8-amino-3-(4-(2-hydroxy-2-methylpropanamido)bicyclo[2.2.1]heptan-1-yl)imidazo[1,5-a]pyrazin-1-yl)benzyl)-5-fluoro-2-methoxybenzamide], for which the figures for the IC50 on BTK(wt) and at BTK(C481S) were 10 to 50 nM and 1 to 10 nM, respectively.

As to `CC1(C(=O)NC23CCC(n4cc(-c5ccc(C(=O)Nc6cc(C(F)(F)F)ccn6)cc5)c5c(N)ncnc54)(CC2)C3)COC1` [Compound B-6-4, N-(4-(4-amino-5-(4-((4-(trifluoromethyl)pyridin-2-yl)carbamoyl)phenyl)-7H-pyrrolo[2,3-d]pyrimidin-7-yl)bicyclo[2.2.1]heptan-1-yl)-3-methyloxetane-3-carboxamide], the IC50 on BTK(wt) and at BTK(C481S) was 1 to 10 nM each time.

In the case of `COC/C=C/C(=O)NC12CCC(c3nc(-c4ccc(C(=O)Nc5cc(C(F)(F)F)ccn5)cc4)c4c(N)nccn34)(CC1)C2` [Compound A-10-1, (E)-4-(8-amino-3-(4-(4-methoxybut-2-enamido)bicyclo[2.2.1]heptan-1-yl)imidazo[1,5-a]pyrazin-1-yl)-N-(4-(trifluoromethyl)pyridin-2-yl)benzamide], the IC50 at BTK(wt) lay within 1 to 10 nM; at BTK(C481S), 0.1 to 1 nM.

As for `CC1(C(=O)NC23CCC(c4nc(-c5ccc(C(=O)Nc6cc(C(F)(F)F)ccn6)cc5)c5c(N)nccn45)(CC2)C3)COC1` [Compound A-10-5, N-(4-(8-amino-1-(4-((4-(trifluoromethyl)pyridin-2-yl)carbamoyl)phenyl)imidazo[1,5-a]pyrazin-3-yl)bicyclo[2.2.1]heptan-1-yl)-3-methyloxetane-3-carboxamide], the values for the IC50 on BTK(wt) and at BTK(C481S) were 1 to 10 nM and not above 0.1 nM, respectively.

On to `Nc1nccn2c(C34CCC(NC(=O)c5ccccc5)(CC3)C4)nc(-c3ccc(C(=O)Nc4cc(C(F)(F)F)ccn4)cc3)c12` [Compound A-10-17, 4-(8-amino-3-(4-benzamidobicyclo[2.2.1]heptan-1-yl)imidazo[1,5-a]pyrazin-1-yl)-N-(4-(trifluoromethyl)pyridin-2-yl)benzamide], for which the IC50 on BTK(wt) lay within 10 to 50 nM; on BTK(C481S), 1 to 10 nM.

Regarding `CC(C)(O)C(=O)NC12CCC(c3nc(-c4ccc(Oc5ccccc5)cc4)c4c(N)nccn34)(CC1)C2` [Compound A-13-1, N-(4-(8-amino-1-(4-phenoxyphenyl)imidazo[1,5-a]pyrazin-3-yl)bicyclo[2.2.1]heptan-1-yl)-2-hydroxy-2-methylpropanamide], the IC50 on BTK(wt) and on BTK(C481S) was 1 to 10 nM throughout.

Take `Nc1ncnc2c1n(-c1ccc(C(=O)Nc3cc(C(F)(F)F)ccn3)cc1)c(=O)n2C12CCC(NC(=O)CN3CCOCC3)(CC1)C2` [Compound C-7-2, 4-(6-amino-9-(4-(2-morpholinoacetamido)bicyclo[2.2.1]heptan-1-yl)-8-oxo-8,9-dihydro-7H-purin-7-yl)-N-(4-(trifluoromethyl)pyridin-2-yl)benzamide]: the IC50 is 1 to 10 nM on BTK(wt) and 0.1 to 1 nM on BTK(C481S).

With `C=CC(=O)NC12CCC(c3nc(-c4ccc(C(=O)Nc5cc(C(F)(F)F)ccn5)cc4)c4c(N)nccn34)(CC1)C2` [Compound A-10-3, 4-(3-(4-acrylamidobicyclo[2.2.1]heptan-1-yl)-8-aminoimidazo[1,5-a]pyrazin-1-yl)-N-(4-(trifluoromethyl)pyridin-2-yl)benzamide], the IC50 at BTK(wt) was in the range of 1 to 10 nM; on BTK(C481S), 0.1 to 1 nM.

As for `CC#CC(=O)NC12CCC(c3nc(-c4ccc(C(=O)Nc5cc(F)ccn5)cc4)c4c(N)nccn34)(CC1)C2` [Compound A-7-2, 4-(8-amino-3-(4-(but-2-ynamido)bicyclo[2.2.1]heptan-1-yl)imidazo[1,5-a]pyrazin-1-yl)-N-(4-fluoropyridin-2-yl)benzamide], the IC50 at BTK(wt) was in the range of 1 to 10 nM; at BTK(C481S) it was 0.1 to 1 nM.

In the case of `CC(C)(O)C(=O)NC12CCC(n3cc(-c4ccc(C(=O)Nc5cc(C(F)(F)F)ccn5)cc4)c4c(N)ncnc43)(CC1)C2` [Compound B-6-2, 4-(4-amino-7-(4-(2-hydroxy-2-methylpropanamido)bicyclo[2.2.1]heptan-1-yl)-7H-pyrrolo[2,3-d]pyrimidin-5-yl)-N-(4-(trifluoromethyl)pyridin-2-yl)benzamide], the results for the IC50 on BTK(wt) and at BTK(C481S) were 10 to 50 nM and 1 to 10 nM, respectively.

Take `COc1ccccc1C(=O)NC12CCC(c3nc(-c4ccc(C(=O)Nc5cc(C(F)(F)F)ccn5)cc4)c4c(N)nccn34)(CC1)C2` [Compound A-10-20, N-(4-(8-amino-1-(4-((4-(trifluoromethyl)pyridin-2-yl)carbamoyl)phenyl)imidazo[1,5-a]pyrazin-3-yl)bicyclo[2.2.1]heptan-1-yl)-2-methoxybenzamide]: the IC50 is 10 to 50 nM at BTK(wt) and 1 to 10 nM on BTK(C481S).

In the case of `CC(C)(O)C(=O)NC12CCC(c3nc(-c4ccc(C(=O)Nc5cc(C(F)(F)F)ccn5)cc4)c4c(N)nccn34)(CC1)C2` [Compound A-10-6, 4-(8-amino-3-(4-(2-hydroxy-2-methylpropanamido)bicyclo[2.2.1]heptan-1-yl)imidazo[1,5-a]pyrazin-1-yl)-N-(4-(trifluoromethyl)pyridin-2-yl)benzamide], the IC50 at BTK(wt) is 1 to 10 nM; at BTK(C481S) it was not above 0.1 nM.

In the case of `Nc1nccn2c(C34CCC(NC(=O)c5cccnc5)(CC3)C4)nc(-c3ccc(C(=O)Nc4cc(C(F)(F)F)ccn4)cc3)c12` [Compound A-10-19, N-(4-(8-amino-1-(4-((4-(trifluoromethyl)pyridin-2-yl)carbamoyl)phenyl)imidazo[1,5-a]pyrazin-3-yl)bicyclo[2.2.1]heptan-1-yl)nicotinamide], the IC50 lay in the range of 10 to 50 nM on BTK(wt) and 1 to 10 nM at BTK(C481S).

As to `COCCC(=O)NC12CCC(c3nc(-c4ccc(Oc5ccccc5)cc4)c4c(N)nccn34)(CC1)C2` [Compound A-13-2, N-(4-(8-amino-1-(4-phenoxyphenyl)imidazo[1,5-a]pyrazin-3-yl)bicyclo[2.2.1]heptan-1-yl)-3-methoxypropanamide], the IC50 at BTK(wt) lay within 1 to 10 nM; at BTK(C481S), 0.1 to 1 nM.

For the compound `N#CCC(=O)NC12CCC(c3nc(-c4ccc(C(=O)Nc5cc(C(F)(F)F)ccn5)cc4)c4c(N)nccn34)(CC1)C2` [Compound A-10-13, 4-(8-amino-3-(4-(2-cyanoacetamido)bicyclo[2.2.1]heptan-1-yl)imidazo[1,5-a]pyrazin-1-yl)-N-(4-(trifluoromethyl)pyridin-2-yl)benzamide], the IC50 at BTK(wt) was 1 to 10 nM; at BTK(C481S), not above 0.1 nM.
